Experimental data: patent publication US5276049A, “Cyclic urea derivatives, pharmaceutical compositions containing these compounds and methods of using the same” (Dr. Karl Thomae GmbH, priority 1991, dated 1994)
Structures can show the parent of a compound that is named as a salt.

Columns and labels:
Human Thrombocytes = assay: Fibrinogen Binding to Human Thrombocytes (I125-fibrinogen, gel-filtered platelets); details: inhibition of I125-fibrinogen binding to gel-filtered human platelets, ADP, 20 minutes, ambient temperature; read-out: Fibrinogen Binding test IC50
Procedure: 1. Fibrinogen Binding to Human Thrombocytes Blood obtained by puncture of an antecubital vein was anticoagulated with trisodium citrate (final concentration: 13 mM) and centrifuged for 10 minutes at 170 *g. The supernatant platelet-rich plasma was placed on a Sepharose 2B column (Pharmacia) and eluted with a solution of 90 mM common salt, 14 mM trisodium citrate, 5 mM glucose and 50 mM tris(hydroxymethyl)aminomethane, adjusted to pH 7.4. The gel-filtered platelets (GFP) appearing in front of the plasma proteins were used for the binding tests. 50 μl of a 60 mM calcium chloride solution, 50 μl of a 0.6 mM adenosine diphosphate solution, 100 μl of substance solution or solvent and 50 μl of fibrinogen solution (containing 3 μg I125-fibrinogen) were added to 750 μl of GFP and incubated for 20 minutes at ambient temperature. The non-specific binding was measured in the presence of 3 mg/ml of cold fibrinogen. 900 μl of the incubate were carefully pipetted onto 250 μl of silicon oil (AP 38: AR 20, 1:2 v/v, Wacker Chemie) in Eppendorf vessels and centrifuged for 2 minutes at 10,000 *g. The aqueous supernatant and some of the oil were removed, the tip of the vessel with the platelet pellet was cut off and the quantity of bound fibrinogen was measured in a gamma-counter. The concentration of substance which inhibited fibrinogen binding by 50% was calculated from a series of concentrations and given as the IC50.

[1] = tested on: thrombocyte aggregation in platelet-rich plasma; assay: Antithrombotic effect: collagen-induced thrombocyte aggregation in platelet-rich plasma (Born and Cross); format: cell-based; details: human platelet-rich plasma, 10 minutes preincubation at 37° C., read-out: Inhibition of platelet aggregation EC50
Procedure: 2. Antithrombotic Effect Method: The thrombocyte aggregation was measured in platelet-rich plasma from healthy test subjects using the Born and Cross method (J. Physiol. 170: 397 (1964)). In order to inhibit coaggulation the blood was mixed with 3.14% sodium citrate in a ratio by volume of 1:10. Collagen-induced aggregation: The decrease in the optical density of the platelet suspension was measured photometrically and recorded after the addition of the aggregation-initiating substance. The speed of aggregation was concluded from the angle of inclination of the density curve. The point on the curve at which there was maximum transmittance was used to calculate the optical density. The quantity of collagen used was as little as possible but sufficient to give an irreversible reaction curve. Standard commercial collagen produced by Hormonchemie of Munich was used. Before the addition of collagen the plasma was incubated with the substance for 10 minutes at 37° C. From the measurements obtained, an EC50 was determined graphically, relating to a 50% change in the optical density in terms of inhibiting aggregation.

IC50 (Human Thrombocytes) [nM]	EC50 [1] [nM]	Structure (SMILES)
2400	10000	N=C(N)c1ccc(N2CCCN(c3ccc(CCC(=O)O)cc3)C2=O)cc1 [1(7), 1-(4-amidino-phenyl)-3-[4-(2-carboxy-ethyl)-phenyl]-3,4,5,6-tetrahydro-1H-pyrimidin-2-one]
6000	12000	COC(=O)CN1CCN(c2ccc(-c3ccc(C(=N)N)cc3)cc2)C1=O [Example 2, 1-(4'-Amidino-4-biphenylyl)-3-methoxycarbonylmethyl-imidazolidin-2-one hydrochloride]
3600	4100	Cc1cc(CN)ccc1N1CCN(c2ccc(CCC(=O)O)cc2)C1=O [1(156), 1-(4-aminomethyl-2-methyl-phenyl)-3-[4-(2-carboxy-ethyl)-phenyl]-imidazolidin-2-one]
210	730	N=C(N)c1ccc(-c2ccc(-c3cn(CCC(=O)O)c(=O)n3-c3ccccc3)cc2)cc1 [1(119), 4-(4'-amidino-4-biphenylyl)-1-(2-Carboxy-ethyl)-3-phenyl-3H-imidazol-2-onehydrochloride]
26	140	N=C(N)c1ccc(N2CCN(c3ccc([S+]([O-])CC(=O)O)cc3)C2=O)cc1 (stereo not drawn) [1(49), 1-(4-amidino-phenyl)-3-(4-carboxymethylsulphinylphenyl)-imidazolidin-2-one]
470	1100	N=C(N)c1ccc(N2CCC(N3CCN(CCC(=O)O)C3=O)CC2)cc1 [1(24), 1-[1-(4-amidino-phenyl)-4-piperidinyl]-3-(2-carboxy-ethyl)-imidazolidin-2-one]
8000	27000	COC(=O)CNCCN1CCN(c2ccc(C(=N)N)cc2)C1=O [2(75), 1-(4-amidino-phenyl)-3-(2-methoxycarbonylmethylamino-ethyl)-imidazolidin-2-one hydrochloride-acetate]
3900	> 100000	N=C(N)c1ccc(-c2ccc(N3CCCN(CCC(=O)O)C3=O)cc2)cc1 [1(4), 1-(4'-amidino-4-biphenylyl)-3-(2-carboxy-ethyl)-3,4,5,6-tetrahydro-1H-pyrimidin-2-one]
5600	25000	COC(=O)CN1CCCN(c2ccc(-c3ccc(C(=N)N)cc3)cc2)C1=O [2(5), 1-(4'-amidino-4-biphenylyl)-3-methoxycarbonylmethyl-3,4,5,6-tetrahydro-1H-pyrimidin-2-one hydrochloride]
29000	6200	COC(=O)C(N)Cc1ccc(N2CCN(c3ccc(CN)cc3)C2=O)cc1 (stereo not drawn) [8(3), 1-[4-(2-amino-2-methoxycarbonyl-ethyl)-phenyl]-3-(4-aminomethyl-phenyl)-imidazolidin-2-one dihydrochloride]
170	460	Cn1c(-c2ccc(-c3ccc(C(=N)N)cc3)cc2)cn(CCC(=O)O)c1=O [1(118), 4-(4'-amidino-4-biphenylyl)-1-(2-carboxy-ethyl)-3-methyl-3H-imidazol-2-onehydrochloride]
7.7	50	N=C(N)c1ccc(-n2ncn(-c3ccc(CCC(=O)O)cc3)c2=O)cc1 [1(145), 2-(4-amidino-phenyl)-4-[4-(2-carboxy-ethyl)-phenyl]-4H-1,2,4-triazol-3-one]
4700	140	COC(=O)CCc1ccc(-n2ccn(-c3ccc(C(=N)N)cc3)c2=O)cc1 [2(58), 1-(4-amidino-phenyl)-3-[4-(2-methoxycarbonyl-ethyl)-phenyl]-3H-imidazol-2-one hydrochloride]
9300	32000	CCOC(=O)CCc1ccc(-n2ccn(-c3ccc(C(=N)NC(=O)OCC)cc3)c2=O)cc1 [Example 5, 1-(4-Ethoxycarbonylamidino-phenyl)-3-[4-(2-ethoxycarbonyl-ethyl)-phenyl]-3H-imidazol-2-one]
17	70	N=C(N)c1ccc(N2CCN(c3ccc(CCC(=O)O)cc3)C2=O)cc1 [1(6), 1-(4-amidino-phenyl)-3-[4-(2-carboxy-ethyl)-phenyl]-imidazolidin-2-one]
3700		COC(=O)CCC1CCC(N2CCN(c3ccc(C(=N)NC(=O)OC)cc3)C2=O)CC1 (stereo not drawn) [5(12), 1-(4-methoxycarbonylamidino-phenyl)-3-[4-(2-methoxycarbonyl-ethyl)-cyclohexyl]-imidazolidin-2-one]

IC50 (Human Thrombocytes) [nM]	EC50 [1] [nM]	Structure (SMILES)
470	1300	NCc1ccc(N2CCN(c3ccc(CC(N)C(=O)O)cc3)C2=O)cc1 (stereo not drawn) [1(149), 1-[4-(2-amino-2-carboxy-ethyl)-phenyl]-3-(4-aminomethyl-phenyl)-imidazolidin-2-one]
45	1500	N=C(N)c1ccc(-c2ccc(N3CCN(CCC(=O)O)C3=O)cc2)cc1 [1(1), 1-(4'-amidino-4-biphenylyl)-3-(2-carboxy-ethyl)-imidazolidin-2-one]
28	310	NC1CCc2cc(N3CCN(c4ccc(CCC(=O)O)cc4)C3=O)ccc21 (stereo not drawn) [1(154), 1-(1-amino-5-indanyl)-3-[4-(2-carboxy-ethyl)-phenyl] -imidazolidin-2-one]
310	400	N=C(N)c1ccc(-c2cn(-c3ccc(CCC(=O)O)cc3)c(=O)n2-c2ccccc2)cc1 [1(94), 4-(4-amidino-phenyl)-1-[4-(2-carboxy-ethyl)-phenyl]-3-phenyl-3H-imidazol-2-one hydrochloride]
17000	29000	N=C(N)c1ccc(N2CCN(CCNCC(=O)O)C2=O)cc1 [1(82), 1-(4-amidino-phenyl)-3-(2-carboxymethylaminoethyl)-imidazolidin-2-one]
4400	8300	CC(=O)N(CCN1CCN(c2ccc(C(=N)N)cc2)C1=O)CC(=O)O [Example 30, 1-[2-(N-Acetyl-N-carboxymethyl-amino)-ethyl]-3-(4-amidino-phenyl)-imidazolidin-2-one]
68000	21000	COC(=O)CCc1ccc(N2CCCN(c3ccc(CN)cc3)C2=O)cc1 [8(1), 1-(4-aminomethyl-phenyl)-3-[4-(2-methoxycarbonyl-ethyl)-phenyl]-3,4,5,6-tetrahydro-1H-pyrimidin-2-one hydrochloride]
	630	COC(=O)CCc1ccc(-n2nc(C)n(-c3ccc(C(=N)N)cc3)c2=O)cc1 [2(117), 4-(4-amidino-phenyl)-2-[4-(2-methoxycarbonyl-ethyl)-phenyl]-5-methyl-4H-1,2,4-triazol-3-one hydrochloride]
	600	Cc1cn(-c2ccc(CCC(=O)O)cc2)c(=O)n1-c1ccc(C(=N)N)cc1 [1(144), 3-(4-amidino-phenyl)-1-[4-(2-carboxy-ethyl)-phenyl]-4-methyl-3H-imidazol-2-one]
	210	Cc1nn(-c2ccc(C(=N)N)cc2)c(=O)n1-c1ccc(CCC(=O)OC(C)C)cc1 [11(11), 2-(4-amidino-phenyl)-4-[4-(2-isopropyloxycarbonyl-ethyl)-phenyl]-5-methyl-4H-1,2,4-triazol-3-one hydrochloride]
5700		COC(=O)CCc1ccc(-n2cnn(-c3ccc(C(N)=NC(=O)OC)cc3)c2=O)cc1 [5(11), 2-(4-methoxycarbonylamidino-phenyl)-3-[4-(2-methoxycarbonyl-ethyl)-phenyl]-4H-1,2,4-triazol-3-one]
	280	COC(=O)CSc1ccc(N2CCN(c3ccc(C(=N)N)cc3)C2=O)cc1 [2(45), 1-(4-amidino-phenyl)-3-(4-methoxycarbonyl-methylthio-phenyl)-imidazolidin-2-one]
	130	COC(=O)CCc1ccc(-n2ncn(-c3ccc(C(=N)N)cc3)c2=O)cc1 [2(124), 4-(amidino-phenyl)-2-[4-(2-methoxycarbonyl-ethyl)-phenyl]-4H-1,2,4-triazol-3-one hydrochloride]
	1200	COC(=O)CCc1ccc(-n2cc(C)n(-c3ccc(C(=N)N)cc3)c2=O)cc1 [2(122), 3-(4-amidino-phenyl)-1-[4-(2-methoxycarbonyl-ethyl)-phenyl]-4-methyl-3H-imidazol-2-one hydrochloride-hydrate]
	240	COC(=O)CS(=O)(=O)c1ccc(N2CCN(c3ccc(C(=N)N)cc3)C2=O)cc1 [Example 18, 1-(4-Amidino-phenyl)-3-(methoxycarbonylmethylsulphonyl-phenyl)-imidazolidin-2-one]
	280	Cc1nn(-c2ccc(CCC(=O)O)cc2)c(=O)n1-c1ccc(C(=N)N)cc1 [1(137), 4-(4-amidino-phenyl)-2-[4-(2-carboxy-ethyl)-phenyl]-5-methyl-4H-1,2,4-triazol-3-one]
